What was measured:
[1] = xn = mol fraction of the nth substance listed; conditions: 101.3 kPa, Liquid
[2] = refractive index (Na D-line) (dimensionless); xn = mol fraction of the nth substance listed; conditions: 101.3 kPa, Liquid

CCOC(=O)c1ccccc1 [ethyl benzoate] + Cc1ccccc1C
Conditions | mass density, [1] [kg/m3] | refractive index, [2] | viscosity, [1] [mPa·s]
303.15 K, x1 = 0.0847 | 887.3 | 1.4994 | 0.758
303.15 K, x1 = 0.1749 | 904.2 | 1.4996 | 0.837
303.15 K, x1 = 0.2686 | 920.9 | 1.4999 | 0.909
303.15 K, x1 = 0.3579 | 937.5 | 1.5001 | 1
303.15 K, x1 = 0.4613 | 954 | 1.5007 | 1.085
303.15 K, x1 = 0.56 | 972.3 | 1.5009 | 1.19
303.15 K, x1 = 0.6668 | 988.1 | 1.501 | 1.312
303.15 K, x1 = 0.7675 | 1001.3 | 1.5011 | 1.433
303.15 K, x1 = 0.8768 | 1021.1 | 1.5013 | 1.566
313.15 K, x1 = 0.0847 | 879.3 | 1.4983 | 0.676
313.15 K, x1 = 0.1749 | 896.1 | 1.4986 | 0.732
313.15 K, x1 = 0.2686 | 913.1 | 1.4989 | 0.8
313.15 K, x1 = 0.3579 | 930.2 | 1.4993 | 0.864
313.15 K, x1 = 0.4613 | 945.7 | 1.4995 | 0.937
313.15 K, x1 = 0.56 | 963.8 | 1.4997 | 1.015
313.15 K, x1 = 0.6668 | 980.8 | 1.4999 | 1.113
313.15 K, x1 = 0.7675 | 992.7 | 1.5001 | 1.208
313.15 K, x1 = 0.8768 | 1010.9 | 1.5003 | 1.31

CCOC(=O)c1ccccc1 [ethyl benzoate] + Cc1ccc(C)cc1
Conditions | mass density, [1] [kg/m3] | refractive index, [2] | viscosity, [1] [mPa·s]
303.15 K, x1 = 0.0916 | 871.1 | 1.4931 | 0.622
303.15 K, x1 = 0.1757 | 889.3 | 1.4939 | 0.679
303.15 K, x1 = 0.2719 | 908.4 | 1.4951 | 0.765
303.15 K, x1 = 0.3616 | 925.3 | 1.4957 | 0.837
303.15 K, x1 = 0.4681 | 947.1 | 1.4965 | 0.951
303.15 K, x1 = 0.5703 | 964.8 | 1.497 | 1.045
303.15 K, x1 = 0.673 | 982.8 | 1.4983 | 1.181
303.15 K, x1 = 0.7781 | 1000.8 | 1.4988 | 1.325
303.15 K, x1 = 0.8651 | 1022.8 | 1.4995 | 1.469
303.15 K, x1 = 0.937 | 1040.8 | 1.5001 | 1.603
313.15 K, x1 = 0.0916 | 863 | 1.4912 | 0.55
313.15 K, x1 = 0.1757 | 880.9 | 1.4924 | 0.606
313.15 K, x1 = 0.2719 | 899.9 | 1.4948 | 0.686
313.15 K, x1 = 0.3616 | 917.3 | 1.495 | 0.739
313.15 K, x1 = 0.4681 | 937.5 | 1.4956 | 0.825
313.15 K, x1 = 0.5703 | 956 | 1.4963 | 0.9
313.15 K, x1 = 0.673 | 974 | 1.4972 | 1.008
313.15 K, x1 = 0.7781 | 993.2 | 1.4979 | 1.126
313.15 K, x1 = 0.8651 | 1010.2 | 1.4989 | 1.239
313.15 K, x1 = 0.937 | 1028.2 | 1.4996 | 1.339

CCOC=O [ethyl methanoate] + Cc1cccc(C)c1
Conditions | mass density, [1] [kg/m3] | refractive index, [2] | viscosity, [1] [mPa·s]
303.15 K, x1 = 0.1348 | 858.3 | 1.4892 | 0.524
303.15 K, x1 = 0.2728 | 863.3 | 1.4695 | 0.494
303.15 K, x1 = 0.3968 | 868.7 | 1.4561 | 0.467
303.15 K, x1 = 0.4988 | 873.1 | 1.4391 | 0.449
303.15 K, x1 = 0.6032 | 877.7 | 1.4288 | 0.43
303.15 K, x1 = 0.6923 | 882.8 | 1.4265 | 0.414
303.15 K, x1 = 0.7867 | 888.4 | 1.4055 | 0.398
303.15 K, x1 = 0.8591 | 895 | 1.3875 | 0.386
303.15 K, x1 = 0.9379 | 900.1 | 1.3856 | 0.373
313.15 K, x1 = 0.1348 | 849.8 | 1.482 | 0.479
313.15 K, x1 = 0.2728 | 854.4 | 1.4679 | 0.453
313.15 K, x1 = 0.3968 | 859.5 | 1.4578 | 0.431
313.15 K, x1 = 0.4988 | 864.3 | 1.438 | 0.412
313.15 K, x1 = 0.6032 | 869.2 | 1.4276 | 0.397
313.15 K, x1 = 0.6923 | 874.3 | 1.4253 | 0.384
313.15 K, x1 = 0.7867 | 880.1 | 1.4043 | 0.369
313.15 K, x1 = 0.8591 | 884.1 | 1.385 | 0.357
313.15 K, x1 = 0.9379 | 889.7 | 1.3841 | 0.347

CCOC(=O)c1ccccc1 [ethyl benzoate] + Cc1cccc(C)c1
Conditions | mass density, [1] [kg/m3] | refractive index, [2] | viscosity, [1] [mPa·s]
303.15 K, x1 = 0.0887 | 871.6 | 1.4946 | 0.612
303.15 K, x1 = 0.1713 | 887.2 | 1.4957 | 0.676
303.15 K, x1 = 0.2626 | 905.2 | 1.4964 | 0.759
303.15 K, x1 = 0.3553 | 926 | 1.497 | 0.837
303.15 K, x1 = 0.4588 | 946.8 | 1.4974 | 0.931
303.15 K, x1 = 0.5707 | 966.5 | 1.499 | 1.055
303.15 K, x1 = 0.6576 | 981.7 | 1.4995 | 1.161
303.15 K, x1 = 0.7831 | 1002.2 | 1.5003 | 1.352
303.15 K, x1 = 0.8832 | 1018.5 | 1.5011 | 1.5
313.15 K, x1 = 0.0887 | 857.3 | 1.4917 | 0.547
313.15 K, x1 = 0.1713 | 875 | 1.4925 | 0.601
313.15 K, x1 = 0.2626 | 895.5 | 1.4939 | 0.664
313.15 K, x1 = 0.3553 | 917.5 | 1.4955 | 0.732
313.15 K, x1 = 0.4588 | 937.2 | 1.4963 | 0.809
313.15 K, x1 = 0.5707 | 966.5 | 1.4979 | 0.91
313.15 K, x1 = 0.6576 | 971.7 | 1.4984 | 0.997
313.15 K, x1 = 0.7831 | 993.7 | 1.4988 | 1.146
313.15 K, x1 = 0.8832 | 1009.8 | 1.4993 | 1.274

CCOC=O [ethyl methanoate] + Cc1ccc(C)cc1
Conditions | mass density, [1] [kg/m3] | refractive index, [2] | viscosity, [1] [mPa·s]
303.15 K, x1 = 0.1658 | 857.7 | 1.4785 | 0.523
303.15 K, x1 = 0.2572 | 861.1 | 1.4746 | 0.503
303.15 K, x1 = 0.4068 | 868.2 | 1.4671 | 0.472
303.15 K, x1 = 0.5039 | 871.6 | 1.4532 | 0.452
303.15 K, x1 = 0.6037 | 878.8 | 1.451 | 0.434
303.15 K, x1 = 0.6916 | 883.4 | 1.4239 | 0.418
303.15 K, x1 = 0.7854 | 889.6 | 1.4121 | 0.403
303.15 K, x1 = 0.8588 | 896 | 1.3901 | 0.39
303.15 K, x1 = 0.9381 | 902.9 | 1.3711 | 0.375
313.15 K, x1 = 0.1658 | 849 | 1.4779 | 0.477
313.15 K, x1 = 0.2572 | 851.7 | 1.4732 | 0.451
313.15 K, x1 = 0.4068 | 858.8 | 1.4611 | 0.424
313.15 K, x1 = 0.5039 | 861.8 | 1.4499 | 0.407
313.15 K, x1 = 0.6037 | 868.8 | 1.4491 | 0.393
313.15 K, x1 = 0.6916 | 873.5 | 1.4201 | 0.38
313.15 K, x1 = 0.7854 | 877.8 | 1.4091 | 0.371
313.15 K, x1 = 0.8588 | 884.7 | 1.3891 | 0.36
313.15 K, x1 = 0.9381 | 891 | 1.3689 | 0.348

CCOC(=O)c1ccccc1 [ethyl benzoate] + CCc1ccccc1
Conditions | mass density, [1] [kg/m3] | refractive index, [2] | viscosity, [1] [mPa·s]
303.15 K, x1 = 0.0862 | 875.1 | 1.492 | 0.643
303.15 K, x1 = 0.1804 | 892.6 | 1.4932 | 0.711
303.15 K, x1 = 0.2589 | 910.2 | 1.4934 | 0.767
303.15 K, x1 = 0.3522 | 927.2 | 1.4942 | 0.857
303.15 K, x1 = 0.472 | 950.1 | 1.496 | 0.97
303.15 K, x1 = 0.5625 | 967 | 1.4968 | 1.071
303.15 K, x1 = 0.6722 | 984.9 | 1.4971 | 1.206
303.15 K, x1 = 0.7675 | 1002 | 1.4992 | 1.33
303.15 K, x1 = 0.8678 | 1019 | 1.4998 | 1.496
303.15 K, x1 = 0.9325 | 1040.9 | 1.5003 | 1.615
313.15 K, x1 = 0.0862 | 867 | 1.4911 | 0.57
313.15 K, x1 = 0.1804 | 884.3 | 1.4921 | 0.629
313.15 K, x1 = 0.2589 | 901.3 | 1.493 | 0.682
313.15 K, x1 = 0.3522 | 918.1 | 1.4937 | 0.745
313.15 K, x1 = 0.472 | 941.4 | 1.4954 | 0.844
313.15 K, x1 = 0.5625 | 960.4 | 1.4959 | 0.937
313.15 K, x1 = 0.6722 | 976.2 | 1.4963 | 1.063
313.15 K, x1 = 0.7675 | 993 | 1.4981 | 1.169
313.15 K, x1 = 0.8678 | 1009.7 | 1.4992 | 1.268
313.15 K, x1 = 0.9325 | 1027.4 | 1.4996 | 1.335
